Laboratory results as given in patent publication US9763445B2, “Safened herbicidal compositions comprising a pyridine carboxylic acid herbicide” (Dow AgroSciences, LLC, priority 2014, dated 2017).

How the values were obtained:
lambsquarters (CHEAL) = test: Postemergence greenhouse trial, % visual injury on lambsquarters; assay type: in vivo, Chenopodium album; settings: for % visual injury, Ob / % visual injury, observed (Ob): CHEAL
Method in brief: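 Plants at second or third true leaf stage, greenhouse-grown (14 h photoperiod, ~23/22° C.), sprayed postemergence with compounds alone or with safener cloquintocet-mexyl in 1.5% v/v Agri-dex crop oil at 187 L/ha. Visual injury scored 0–100% versus solvent-blank controls after 20-22 d; expected mixture effects by Colby's equation.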

[1] = system: purple deadnettle (LAMPU); test: Postemergence greenhouse trial, % visual injury on purple deadnettle; assay type: in vivo, Lamium purpureum
Method in brief: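 Herbicide rates g ae/ha, safener (cloquintocet-mexyl) rates g ai/ha; spray carrier 1.5% v/v crop oil concentrate, 187 L/ha, 2nd–3rd leaf stage. Rating: visual % injury at 20-22 d.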

Russian thistle (SASKR) = test: Postemergence greenhouse trial, % visual injury on Russian thistle; assay type: in vivo, Salsola kali
cornflower (CENCY) = test: Postemergence greenhouse trial, % visual injury on cornflower; assay type: in vivo, Centaurea cyanus or Cyanus segetum

CCCCCC(C)OC(=O)COc1ccc(Cl)c2cccnc12 (stereo not shown) [CQC-m, cloquintocet-mexyl, reference compound]
0%: % visual injury, Ob (lambsquarters (CHEAL); compound 0, CQC-m 4.375 g/ha) | % visual injury, Ob (lambsquarters (CHEAL); compound 0, CQC-m 8.75 g/ha) | % visual injury, Ob (lambsquarters (CHEAL); compound 0, CQC-m 17.5 g/ha) | % visual injury, Ob (lambsquarters (CHEAL); compound 0, CQC-m 35 g/ha) | % visual injury, Ob (lambsquarters (CHEAL); compound 0, CQC-m 70 g/ha) | % visual injury, observed (Ob) (lambsquarters (CHEAL); compound 8 0 + CQC-m 4.375 g/ha) | % visual injury, observed (Ob) (lambsquarters (CHEAL); compound 8 0 + CQC-m 8.75 g/ha) | % visual injury, observed (Ob) (lambsquarters (CHEAL); compound 8 0 + CQC-m 17.5 g/ha) | % visual injury, observed (Ob) (lambsquarters (CHEAL); compound 8 0 + CQC-m 35 g/ha) | % visual injury, observed (Ob) (lambsquarters (CHEAL); compound 8 0 + CQC-m 70 g/ha) | pest or weed control at 4.375 g/ha (lambsquarters (CHEAL); Chenopodium album, post-emergence, alone, 4.375 g/ha, read-out: % visual injury, Ob) | pest or weed control at 8.75 g/ha (lambsquarters (CHEAL); Chenopodium album, post-emergence, alone, 8.75 g/ha, read-out: % visual injury, Ob) | pest or weed control at 17.5 g/ha (lambsquarters (CHEAL); Chenopodium album, post-emergence, alone, 17.5 g/ha, read-out: % visual injury, Ob) | pest or weed control at 20 g/ha (lambsquarters (CHEAL); Chenopodium album, post-emergence, alone, 20 g/ha, read-out: % visual injury, Ob) | pest or weed control at 35 g/ha (lambsquarters (CHEAL); Chenopodium album, post-emergence, alone, 35 g/ha, read-out: % visual injury, Ob) | pest or weed control at 40 g/ha (lambsquarters (CHEAL); Chenopodium album, post-emergence, alone, 40 g/ha, read-out: % visual injury, Ob) | pest or weed control at 70 g/ha (lambsquarters (CHEAL); Chenopodium album, post-emergence, alone, 70 g/ha, read-out: % visual injury, Ob) | pest or weed control at 80 g/ha (lambsquarters (CHEAL); Chenopodium album, post-emergence, alone, 80 g/ha, read-out: % visual injury, Ob) | % visual injury, Ob ([1]; LAMPU, compound 0, CQC-m 4.375 g/ha) | % visual injury, Ob ([1]; LAMPU, compound 0, CQC-m 8.75 g/ha) | % visual injury, Ob ([1]; LAMPU, compound 0, CQC-m 17.5 g/ha) | % visual injury, Ob ([1]; LAMPU, compound 0, CQC-m 35 g/ha) | % visual injury, Ob ([1]; LAMPU, compound 0, CQC-m 70 g/ha) | % visual injury, Ob ([1]; LAMPU, compound 0 g/ha, CQC-m 4.375 g/ha) | % visual injury, Ob ([1]; LAMPU, compound 0 g/ha, CQC-m 8.75 g/ha) | % visual injury, Ob ([1]; LAMPU, compound 0 g/ha, CQC-m 17.5 g/ha) | % visual injury, Ob ([1]; LAMPU, compound 0 g/ha, CQC-m 35 g/ha) | % visual injury, Ob ([1]; LAMPU, compound 0 g/ha, CQC-m 70 g/ha) | % visual injury, Ob ([1]; alone, 4.375 g/ha) | % visual injury, Ob ([1]; alone, 8.75 g/ha) | % visual injury, Ob ([1]; alone, 17.5 g/ha) | % visual injury, Ob ([1]; alone, 35 g/ha) | % visual injury, Ob ([1]; alone, 70 g/ha) | % visual injury, Ob (Russian thistle (SASKR); SASKR, 4.375 g/ha, applied alone) | % visual injury, Ob (Russian thistle (SASKR); SASKR, 8.75 g/ha, applied alone) | % visual injury, Ob (Russian thistle (SASKR); SASKR, 17.5 g/ha, applied alone) | % visual injury, Ob (Russian thistle (SASKR); SASKR, 35 g/ha, applied alone) | % visual injury, Ob (Russian thistle (SASKR); SASKR, 70 g/ha, applied alone) | % visual injury, Ob (Russian thistle (SASKR); SASKR, compound 0, CQC-m 4.375 g/ha) | % visual injury, Ob (Russian thistle (SASKR); SASKR, compound 0, CQC-m 8.75 g/ha) | % visual injury, Ob (Russian thistle (SASKR); SASKR, compound 0, CQC-m 17.5 g/ha) | % visual injury, Ob (Russian thistle (SASKR); SASKR, compound 0, CQC-m 35 g/ha) | % visual injury, Ob (Russian thistle (SASKR); SASKR, compound 0, CQC-m 70 g/ha) | % visual injury, Ob (Russian thistle (SASKR); SASKR, compound 0 g/ha, CQC-m 4.375 g/ha) | % visual injury, Ob (Russian thistle (SASKR); SASKR, compound 0 g/ha, CQC-m 8.75 g/ha) | % visual injury, Ob (Russian thistle (SASKR); SASKR, compound 0 g/ha, CQC-m 17.5 g/ha) | % visual injury, Ob (Russian thistle (SASKR); SASKR, compound 0 g/ha, CQC-m 35 g/ha) | % visual injury, Ob (Russian thistle (SASKR); SASKR, compound 0 g/ha, CQC-m 70 g/ha) | % visual injury, observed (Ob) (Russian thistle (SASKR); SASKR, compound 8 0 + CQC-m 4.375 g/ha) | % visual injury, observed (Ob) (Russian thistle (SASKR); SASKR, compound 8 0 + CQC-m 8.75 g/ha) | % visual injury, observed (Ob) (Russian thistle (SASKR); SASKR, compound 8 0 + CQC-m 17.5 g/ha) | % visual injury, observed (Ob) (Russian thistle (SASKR); SASKR, compound 8 0 + CQC-m 35 g/ha) | % visual injury, observed (Ob) (Russian thistle (SASKR); SASKR, compound 8 0 + CQC-m 70 g/ha) | % visual injury, Ob (Russian thistle (SASKR); alone, 4.375 g/ha) | % visual injury, Ob (Russian thistle (SASKR); alone, 8.75 g/ha) | % visual injury, Ob (Russian thistle (SASKR); alone, 17.5 g/ha) | % visual injury, Ob (Russian thistle (SASKR); alone, 35 g/ha) | % visual injury, Ob (Russian thistle (SASKR); alone, 70 g/ha) | % visual injury, Ob (cornflower (CENCY); CENCY, compound 0, CQC-m 4.375 g/ha) | % visual injury, Ob (cornflower (CENCY); CENCY, compound 0, CQC-m 8.75 g/ha) | % visual injury, Ob (cornflower (CENCY); CENCY, compound 0, CQC-m 17.5 g/ha) | % visual injury, Ob (cornflower (CENCY); CENCY, compound 0, CQC-m 35 g/ha) | % visual injury, Ob (cornflower (CENCY); CENCY, compound 0, CQC-m 70 g/ha) | % visual injury, Ob (cornflower (CENCY); CENCY, compound 0 g/ha, CQC-m 4.375 g/ha) | % visual injury, Ob (cornflower (CENCY); CENCY, compound 0 g/ha, CQC-m 8.75 g/ha) | % visual injury, Ob (cornflower (CENCY); CENCY, compound 0 g/ha, CQC-m 17.5 g/ha) | % visual injury, Ob (cornflower (CENCY); CENCY, compound 0 g/ha, CQC-m 35 g/ha) | % visual injury, Ob (cornflower (CENCY); CENCY, compound 0 g/ha, CQC-m 70 g/ha) | % visual injury, Ob (cornflower (CENCY); alone, 17.5 g/ha) | % visual injury, Ob (cornflower (CENCY); alone, 70 g/ha)
